Laboratory results reported in patent publication US20100247435A1, “MEASUREMENT OF NEURAL ACTIVITY” (priority 2007, published 2010).

Experiment: Biodistribution of 3H compound in rat
Format: in vivo, Rats (Wistar)
Conditions: Wistar rat, 2, 5, 20 and 40 min p.i.
Method: A tritiated version of 3-[2,4-Difluoro-phenoxy]-phenyl-pyrazole-1-carboxylic acid amide (“Hammersmith compound” in FIG. 1) was custom prepared by GE Healthcare, Cardiff.
Rats (Wistar, ca. 150 g; Charles River UK Ltd) were injected with 0.37 MBq of [^3H]-3-[2,4-Difluoro-phenoxy]-phenyl-pyrazole-1-carboxylic acid amide, as an intravenous bolus via the tail vein. Rats were killed by cervical dislocation at 2, 5, 20 and 40 min post injection (p.i.). Brain (separated as cortex and hippocampus), blood, and major organs were collected, weighed and burned using a Packard Tissue Oxidizer model 307 (Packard Instrument Co., Meriden, Conn.). Samples were then counted in a β-counter (Rack Beta, Perkin Elmer LAS (UK) Ltd).

NC(=O)n1ccc(-c2ccc(Oc3ccc(F)cc3F)cc2)n1 [[^3H]-3-[2,4-Difluoro-phenoxy]-phenyl-pyrazole-1-carboxylic acid amide]
time activity curves (0.37 MBq i.v., FIG. 1): consistent with reversible binding | brain uptake of the compound (0.37 MBq intravenous bolus via tail vein, % id/g shown in FIG. 1): good
